Assay results: ChEMBL document CHEMBL1137572, “CYP2C9 structure-metabolism relationships: substrates, inhibitors, and metabolites” (J Med Chem, 2007)

What follows are molecules tested against Cytochrome P450 2C9 (Homo sapiens, UniProt P11712) (assay: Inhibition of recombinant CYP2C9 by fluorescence inhibition assay).
Assay type: ADME

Sequence of Cytochrome P450 2C9 (P11712 whole entry): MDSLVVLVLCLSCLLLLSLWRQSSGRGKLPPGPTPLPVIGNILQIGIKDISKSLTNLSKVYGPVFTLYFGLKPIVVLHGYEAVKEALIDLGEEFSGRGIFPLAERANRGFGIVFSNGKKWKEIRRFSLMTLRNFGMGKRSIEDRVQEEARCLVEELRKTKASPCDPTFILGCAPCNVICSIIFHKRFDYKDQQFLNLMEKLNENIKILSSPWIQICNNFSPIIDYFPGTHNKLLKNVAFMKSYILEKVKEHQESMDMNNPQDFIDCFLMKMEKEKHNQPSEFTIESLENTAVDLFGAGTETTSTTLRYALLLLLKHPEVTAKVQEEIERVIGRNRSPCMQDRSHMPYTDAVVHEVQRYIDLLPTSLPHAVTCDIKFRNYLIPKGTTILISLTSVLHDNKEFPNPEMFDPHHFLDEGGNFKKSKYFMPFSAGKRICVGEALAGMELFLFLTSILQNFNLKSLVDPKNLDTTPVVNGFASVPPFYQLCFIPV

`CSc1ccc(-n2nc(C(F)(F)F)cc2-c2ccc(C)cc2)cc1` and `Cc1ccc(-c2cc(C(F)(F)F)nn2-c2ccc(C)cc2)cc1` cannot be ordered by IC50: over 40 µM for the first, over 40 µM for the second.

First: Cc1ccc(-c2cc(C(F)(F)F)nn2-c2ccc(S(C)(=O)=O)cc2)cc1
Second: Cc1ccc(-c2cc(C(F)(F)F)nn2-c2ccc(S(N)(=O)=O)cc2)cc1 [CELECOXIB]
The IC50 of the first is 1.6-fold higher: 16 µM for the first, 10 µM for the second.

`CCOC(=O)c1ccc(-n2nc(C(F)(F)F)cc2-c2ccc(C(F)(F)F)cc2)cc1` and `O=C(O)c1ccc(-n2nc(C(F)(F)F)cc2-c2ccc(C(F)(F)F)cc2)cc1` cannot be ordered by IC50: over 40 µM for the first, over 40 µM for the second.

`Cc1ccc(-c2cc(C(F)(F)F)nn2-c2ccc(CC(=O)O)cc2)cc1` and `Cc1ccc(-c2cc(C(F)(F)F)nn2-c2ccc(C(=O)O)cc2)cc1` cannot be ordered by IC50: over 40 µM for the first, over 40 µM for the second.

Going from `Cc1ccc(-c2cc(C(=O)O)nn2-c2ccc(S(N)(=O)=O)cc2)cc1` to `Cc1ccc(-c2cc(-c3ccccc3)nn2-c2ccc(S(N)(=O)=O)cc2)cc1`, the IC50 falls from over 40 µM to 16 µM.

`NS(=O)(=O)c1ccc(-n2nc(C(F)(F)F)cc2-c2ccc(C(F)(F)F)cc2)cc1` and `O=C(O)Cc1ccc(-n2nc(C(F)(F)F)cc2-c2ccc(C(F)(F)F)cc2)cc1` are within 1.5-fold of each other in IC50: 17 µM for the first, 25 µM for the second.

Compared with `Cc1ccc(-c2cc(C(F)(F)F)nn2-c2ccc([S+](C)[O-])cc2)cc1` (centres undefined), `CCOC(=O)c1ccc(-n2nc(C(F)(F)F)cc2-c2ccc(C)cc2)cc1` is higher in IC50: 26 µM for the first, over 40 µM for the second. The first is the more potent here.
